Assay results reported in ChEMBL document CHEMBL6103573, “Discovery of novel thienopyridine indole derivatives as inhibitors of tubulin polymerization targeting the colchicine-binding site with potent anticancer activities” (Eur J Med Chem, 2025).
The source made the active and inactive calls. No cut-off for these calls is given here.

How the values were obtained:
[1] = tested on: HGC-27; assay: Inhibition of colony formation in human HGC-27 cells at 0.5 nmol/L incubated for 7 days by crystal violet staining based colony formation assay relative to control; assay type: functional; conditions: HGC-27, 168 h, time 7 day
[2] = Toxicity in female BALB/c-nu nude mouse xenografted with human MGC-803 cells assessed as body weight loss at 5 mg/kg, po administrated every other day for 11 times and measured after 21 days; assay type: organism-based; conditions: in vivo, 504 h, time 21 day
[3] = target: Tubulin beta (Homo sapiens) (UniProt P68371+Q9H4B7+Q13509+P04350+Q3ZCM7+P07437+Q13885+Q9BVA1+Q9BUF5+A6NNZ2); assay: Competitive binding affinity to beta-tubulin colchicine binding site in human MGC-803 cells assessed as reduction in EBI-beat tubulin adduct to beta-tubulin ratio preincubated for 2 hrs followed by EBI addition and measured after 2 hrs by Western blotting analysis; assay type: cell-based; conditions: dose 0.1-1 µmol/L, time 4.0 hrs
[4] = tested on: MGC-803; assay: Antitumor activity against human MGC-803 cells xenografted in female BALB/c-nu nude mouse assessed as increase in apoptotic cells at 5 mg/kg, po administrated every other day for 11 times and measured after 21 days by TUNEL staining based assay; assay type: functional, organism-based; conditions: time 21.0 day

Q: With `CN(c1ccc2c(ccn2C)c1)c1nc(N2CCCC2)nc2sccc12` as the molecule, how does the inhibition at 0.0005 µM [1] read?
A: > 90%

Q: What about the Activity [2] of the same molecule?
A: Non-toxic

Q: And the Activity [3]?
A: Dose-dependent-effect

Q: And the Activity [4]?
A: Active
